Patent publication US7645802B2 (Biovail Laboratories International SRL., priority 2005, dated 2010)
Entries after “also recorded” stand apart in the source; their conditions may differ. Where a name gives a salt, the structure may show the parent alone. Marks after values point to notes of the source that are not given here.

Assays:
CD-1 mice = test: cortical EEG and behaviour in mice at convulsive and non-convulsive doses; settings: 150 mg/kg i.p.; for seizure-like behavioural activity over time, second study pair: time after injection
Description: Test system: 30 healthy female mice, of strain CD-1, having a bodyweight of 25-29 g, were acclimatized for a minimum period of 4 days and used for this study. Each animal, after allocation to groups, was identified by markings on the dorsal surface of the tail. Environmental conditions included a temperature of 22±3° C., and artificial lighting of 12 hours light/dark cycle. Routine activities such as cleaning, feeding and watering were performed according to the RCSl's current SOPS.
The diluent used was 0.9% sodium chloride solution. Storage temperature was at about 25° C.
Test Item Administration: The test item was administered intraperitoneally using a disposable syringe with a 1 ml syringe and 26 g needle. The route of administration was intraperitoneal.
Protocol: Habituated mice were anesthetized with isofolurane, placed in a stereotaxic frame and maintained normothermic (36-37° C.) by means of a feedback-controlled mouse-designed homeothermic blanket (Harvard Apparatus). Under isoflurane anaesthesia, a midline skill incision was made over the skull and the skull exposed. Three partial craniectomies were performed: one overlying each temporal lobe and a third across the region overlying frontal cortex. Mouse-sized cranial EEG (E363/20, electrode with mounting screw and socket, Plastics One Inc) were affixed at each point. The electrode assembly was affixed to the skull with dental cement and then anaesthesia discontinued and the animal placed in the recording chamber for 30-60 minutes after recovery. Electrodes were then connected to a multichannel 363 Connector Cable system with SL6C 6 channel swivel commutator and baseline EEG recordings commenced using a Grass model Comet Portable 40-channel Digital EEG & Review System with Twin digital EEG in tandem with continuous digital video. […] Mice were run in parallel so that a hydrochloride mouse was injected within minutes of a hydrobromide mouse and recordings made simultaneously. Video-EEG was recorded for a period of one (1) hour. Afterwards, mice were returned to cages and then euthanized at 24 h and brains harvested.
Analysis: The duration of type IV polyspike high frequency (>1 Hz) high amplitude (>2× baseline) was determined for each mouse over the 1 h recording period.

rat = settings: for NUMBER OF ANIMALS WITH SEIZURE ACTIVITY / DURATION OF INITIAL SEIZURE CORTEX mean ± s.e.m. / DURATION OF INITIAL SEIZURE HIPPOCAMPUS mean ± s.e.m.: 100 mg/kg i.p., long seizure activity; for NUMBER OF ANIMALS WITH SEIZURE ACTIVITY: 10 rats per group, HBr dose in HCl molar equivalent
TGA of bupropion salts = assay type: physicochemical; settings: at 400° C.
Description: 2-5 mg of each salt was placed in an aluminium pan and covered with its lid. DSC was run for each sample at the rate of 10 degrees C./min (for HBr salt, different rates were used to investigate for polymorphs) from 30 degrees C. to 400 degrees C. TGA was also used for each of the HBr, HCl, maleate and tosylate salts.
(§1) The salts were analyzed by DSC (at 10° C./min from 30° C. up to 400° C.) and the pH (aq. 0.5%), and the moisture content by KF were also measured. The TGA was performed on the HCl, maleate, tosylate and HBr salts.

[1] = Closed vial / closed glass bottle stability (40° C./75% RH) of bupropion salt APIs; assay type: physicochemical
[2] = Solubility and other physical properties, Bupropion HBr vs Bupropion HCl
[3] = moisture content by KF and pH (aq. 0.5%) of bupropion salts; assay type: physicochemical; settings: salt as received
Description: The eight salts were first evaluated by HPLC, KF, pH and DSC for purity, water content, aqueous pH and possible polymorphs.
as §1

[4] = 10-Days, closed glass bottle 40 C./75% RH, HBr Lot# STN07491, HCl Lot# STN06973
[5] = 10 Days, closed glass bottle 40 C./75% RH, HBr Lot# STN07492, HCl Lot# STN06978
[6] = 14-Days, closed glass bottle 40° C./75% RH, HBr Lot# STN07492, HCl L# STN06973
[7] = 24 Days, closed glass bottle 40° C./75% RH, HBr Lot# STN07492, HCl L# STN06973
[8] = 24 Days, closed glass bottle 40° C./75% RH, HBr Lot# STN07492, HCl L# STN06973, hydrochloride
[9] = Initial, closed glass bottle 40 C./75% RH, HBr Lot# STN07491, HCl Lot# STN06973
[10] = Initial, closed glass bottle 40 C./75% RH, HBr Lot# STN07492, HCl Lot# STN06978
[11] = Initial, closed glass bottle 40° C./75% RH, HBr Lot# STN07492, HCl L# STN06973
[12] = HCl from Erregierre, HBr from Chemi, hydrochloride

CC(NC(C)(C)C)C(=O)c1cccc(Cl)c1.Cl (racemic) [bupropion hydrochloride, (±)-1-(3-chlorophenyl)-2-[(1,1-dimethylethyl)amino]-1-propanone hydrochloride]
seizure EEG (CD-1 mice; n=4 per salt, cortical electrodes, 1 h, listed as HCl, hydrochloride): no seizure EEG; also recorded: two very brief EEG bursts; also recorded: brief burst of seizure | seizure-like behavioural activity over time, second study pair (CD-1 mice): about 30 mins | NUMBER OF ANIMALS WITH SEIZURE ACTIVITY (rat): 10 | DURATION OF INITIAL SEIZURE CORTEX mean ± s.e.m. (rat): 33 ± 3 | DURATION OF INITIAL SEIZURE HIPPOCAMPUS mean ± s.e.m. (rat): 25 ± 4

CC(NC(C)(C)C)C(=O)c1cccc(Cl)c1 (centres unmarked) [Bupropion HCl, bupropion hydrochloride]
residue (TGA) (TGA of bupropion salts): minimal residues | % Assay [1, 4]: 96.3% | % Impurities 3-CBZ [1, 4]: 0.110% | % Impurities 20U78/dilu [1, 4]: 0.047% | % Impurities 827U76 [1, 4]: 0.045% | % Impurities 852U77 [1, 4]: 0.047% | % Impurities Total unknown [1, 4]: 0.187% | % Impurities Total (%) ([1]; 10-Days, closed glass bottle 40 C./75% RH, HBr Lot# STN07491, HCl Lot# STN06973, hydrochloride): 0.44% | % Assay [1, 5]: 96.5% | % Impurities 3-CBZ [1, 5]: 0.278% | % Impurities 20U78/dilu [1, 5]: 0.057% | % Impurities 827U76 [1, 5]: 0.141% | % Impurities 852U77 [1, 5]: 0.124% | % Impurities Total unknown [1, 5]: 0.137% | % Impurities Total (%) ([1]; 10 Days, closed glass bottle 40 C./75% RH, HBr Lot# STN07492, HCl Lot# STN06978, hydrochloride): 0.74% | % Assay [1, 6]: 98.5% | % Impurities 3-CBZ [1, 6]: 0.019% | % Impurities 20U78/dilu [1, 6]: 0.038% | % Impurities 852U77 [1, 6]: 0.010% | % Impurities Total unknown [1, 6]: 0.038% | % Impurities Total (%) ([1]; 14-Days, closed glass bottle 40° C./75% RH, HBr Lot# STN07492, HCl L# STN06973, hydrochloride): 0.11% | % Assay [1, 7]: 98.5% | % Impurities 3-CBZ [1, 7]: 0.082% | % Impurities 827U76 [1, 7]: 0.102% | % Impurities 852U77 [1, 7]: 0.023% | % Impurities Total unknown [1, 7]: 0.049% | % Impurities 20U78/dilu [1, 8]: 0.040% | % Impurities Total (%) [1, 8]: 0.30% | % Assay [1, 9]: 99.4% | % Impurities 3-CBZ [1, 9]: 0.003% | % Impurities 20U78/dilu [1, 9]: 0.040% | % Impurities Total unknown [1, 9]: 0.053% | % Impurities Total (%) ([1]; Initial, closed glass bottle 40 C./75% RH, HBr Lot# STN07491, HCl Lot# STN06973, hydrochloride): 0.10% | % Assay [1, 10]: 99.1% | % Impurities 3-CBZ [1, 10]: 0.002% | % Impurities 20U78/dilu [1, 10]: 0.04% | % Impurities Total unknown [1, 10]: 0.165% | % Impurities Total (%) ([1]; Initial, closed glass bottle 40 C./75% RH, HBr Lot# STN07492, HCl Lot# STN06978, hydrochloride): 0.21% | % Assay [1, 11]: 100.4% | % Impurities 3-CBZ [1, 11]: 0.002% | % Impurities 20U78/dilu [1, 11]: 0.043% | % Impurities 852U77 [1, 11]: 0.003% | % Impurities Total unknown [1, 11]: 0.044% | % Impurities Total (%) ([1]; Initial, closed glass bottle 40° C./75% RH, HBr Lot# STN07492, HCl L# STN06973, hydrochloride): 0.09% | solubility ([2]; EtOH): 80 mg/mL | pH (aq. 0.5%) ([2]; HCl from Erregierre, HBr from Chemi): 5.90 | PS (Malvern) 10% [2, 12]: 10% 32 μm | PS (Malvern) 50% [2, 12]: 50% 102 μm | PS (Malvern) 90% [2, 12]: 90% 276 μm | moisture content KF [2, 12]: 0.01% | solubility ([2]; IPA): 10 mg/mL | solubility ([2]; Water): 270 mg/mL

Br.CC(NC(C)(C)C)C(=O)c1cccc(Cl)c1 (centres unmarked) [bupropion hydrobromide]
moisture content KF [3]: 0.00% | pH of the aqueous solution of 0.5% [3]: 5.92 | duration of convulsive behavior, hydrobromide versus hydrochloride (CD-1 mice; study pairs 1, 2 and 3): lasted longer than the hydrochloride-treated mouse | seizure-like behavioural activity over time, second study pair (CD-1 mice): still observing rearing and falling, forepaw running and turning in the hydrobromide-treated mouse at 60 minutes | NUMBER OF ANIMALS WITH SEIZURE ACTIVITY (rat): 4* | DURATION OF INITIAL SEIZURE CORTEX mean ± s.e.m. (rat): 31 ± 6 | DURATION OF INITIAL SEIZURE HIPPOCAMPUS mean ± s.e.m. (rat): 23 ± 2 | dead (rat; in vivo, ip, 100 mg/kg): #dead (1/10).
